In publication PMC11995724, “Antibiotic target discovery by integrated phenotypic and activity-based profiling of electrophilic fragments” (Cell chemical biology, 2025):
Where a name gives a salt, the structure may show the parent alone.

Test: in vitro
Conditions: human, hek293t cells

Row | Structure (SMILES) | viability at 48 h, 25 µM [%]
1 | COc1cccc(N2C(=O)C=CC2=O)c1 [10-K03, 1-(3-methoxyphenyl)-2,5-dihydro-1H-pyrrole-2,5-dione] | 18.5
2 | Cc1cc(C(=O)CCl)c(C)n1-c1ccc(OC(F)F)c(Cl)c1 [10-K04, 2-chloro-1-{1-[3-chloro-4-(difluoromethoxy)phenyl]-2,5-dimethyl-1H-pyrrol-3-yl}ethan-1-one] | 0.0199
3 | O=C(CCl)c1c[nH]c2ccncc12 [10-K05, 2-chloro-1-{1H-pyrrolo[3,2-c]pyridin-3-yl}ethan-1-one] | 1.3
4 | CC(=O)Nc1ccc(C(=O)C(C)Cl)cc1 (centres unmarked) [10-K06, N-[4-(2-chloropropanoyl)phenyl]acetamide] | 101
5 | O=C1C=CC(=O)N1CCCCO [10-K07, 1-(4-hydroxybutyl)-2,5-dihydro-1H-pyrrole-2,5-dione] | 39.9
6 | CCOc1ccc(-n2c(C)cc(C(=O)CCl)c2C)cc1 [10-K08, 2-chloro-1-[1-(4-ethoxyphenyl)-2,5-dimethyl-1H-pyrrol-3-yl]ethan-1-one] | 0.112
7 | O=C(CCl)C1CC1(Cl)Cl (centres unmarked) [10-K09, 2-chloro-1-(2,2-dichlorocyclopropyl)ethan-1-one] | 1.74
8 | COc1ccc(Cl)cc1N1C(=O)C=CC1=O [10-K10, 1-(5-chloro-2-methoxyphenyl)-2,5-dihydro-1H-pyrrole-2,5-dione] | 81.3
9 | O=C(CCl)c1sccc1Cl [10-K11, 2-chloro-1-(3-chlorothiophen-2-yl)ethan-1-one] | 17
10 | O=C1C=CC(=O)N1c1ccccc1Sc1ccccc1 [10-K12, 1-[2-(phenylsulfanyl)phenyl]-2,5-dihydro-1H-pyrrole-2,5-dione] | 63
11 | Cc1noc(C)c1C(=O)CCl [10-K13, 2-chloro-1-(3,5-dimethyl-1,2-oxazol-4-yl)ethan-1-one] | 56.9
12 | Cc1cc(C(=O)CCl)c(C)n1-c1ccc2c(c1)OCO2 [10-K14, 1-[1-(1,3-dioxaindan-5-yl)-2,5-dimethyl-1H-pyrrol-3-yl]-2-chloroethan-1-one] | 22.4
13 | O=C(CCl)Cc1c(Cl)cccc1Cl [10-K15, 1-chloro-3-(2,6-dichlorophenyl)propan-2-one] | 23.3
14 | Cc1cc(C(=O)CCl)c(C)s1 [10-K16, 2-chloro-1-(2,5-dimethylthiophen-3-yl)ethan-1-one] | 0.769
15 | O=C(CCl)Cc1cccc(F)c1F [10-K17, 1-chloro-3-(2,3-difluorophenyl)propan-2-one] | 33.7
16 | Cc1ccc2nc(-c3ccc(N4C(=O)C=CC4=O)cc3)sc2c1 [10-K18, 1-[4-(6-methyl-1,3-benzothiazol-2-yl)phenyl]-2,5-dihydro-1H-pyrrole-2,5-dione] | 107
17 | O=C(CCl)C1(F)CCCCC1 [10-K19, 2-chloro-1-(1-fluorocyclohexyl)ethan-1-one] | 97.5
18 | O=CN1CCc2cc(C(=O)CCl)ccc21 [10-K20, 5-(2-chloroacetyl)-2,3-dihydro-1H-indole-1-carbaldehyde] | 89.7
19 | COC(=O)c1c(C(=O)CCl)c(C)n(C(C)C)c1C [10-K21, methyl 4-(2-chloroacetyl)-2,5-dimethyl-1-(propan-2-yl)-1H-pyrrole-3-carboxylate] | 71.2
20 | O=C1NC(=O)c2cc(NC(=O)N3CCSSCC3)ccc21 [10-K22, N-(1,3-dioxo-2,3-dihydro-1H-isoindol-5-yl)-1,2,5-dithiazepane-5-carboxamide] | 98.8

Row | Structure (SMILES) | viability at 48 h, 25 µM [%]
21 | Cc1cc(C(=O)CCl)c(C)n1CCC(C)C [10-L03, 2-chloro-1-[2,5-dimethyl-1-(3-methylbutyl)-1H-pyrrol-3-yl]ethan-1-one] | 76.2
22 | COc1cc(OC)c(C(=O)CCl)c(OC)c1 [10-L04, 2-chloro-1-(2,4,6-trimethoxyphenyl)ethan-1-one] | 80.7
23 | COc1ccc2[nH]c(C)c(C(=O)CCl)c2c1 [10-L05, 2-chloro-1-(5-methoxy-2-methyl-1H-indol-3-yl)ethan-1-one] | 14.8
24 | NC(=O)c1csc(C(=O)CCl)c1 [10-L06, 5-(2-chloroacetyl)thiophene-3-carboxamide] | 66.2
25 | Cc1cccc(-n2cc(C(=O)CCl)nn2)c1 [10-L07] | 81.5
26 | O=C(CCl)c1cscn1 [10-L08, 2-chloro-1-(1,3-thiazol-4-yl)ethan-1-one] | 59.2
27 | Cc1ccc(S(=O)(=O)N2CCSSCC2)c(F)c1 [10-L09, 5-(2-fluoro-4-methylbenzenesulfonyl)-1,2,5-dithiazepane] | 92.2
28 | CCCn1c(N)c(C(=O)CCl)c(=O)[nH]c1=O [10-L10, 6-amino-5-(2-chloroacetyl)-1-propyl-1,2,3,4-tetrahydropyrimidine-2,4-dione] | 97.8
29 | COc1ccc(N2C(=O)C=CC2=O)c([N+](=O)[O-])c1 [10-L11, 1-(4-methoxy-2-nitrophenyl)-2,5-dihydro-1H-pyrrole-2,5-dione] | 100
30 | COC(=O)Cc1ccc(C(=O)CCl)s1 [10-L12, methyl 2-[5-(2-chloroacetyl)thiophen-2-yl]acetate] | 76.1
31 | O=C(CCl)c1ccc(F)c(F)c1 [10-L13, 2-chloro-1-(3,4-difluorophenyl)ethan-1-one] | 95.7
32 | N#CC(C(=O)CCl)c1nncn1-c1ccccc1 (centres unmarked) [10-L14, 4-chloro-3-oxo-2-(4-phenyl-4H-1,2,4-triazol-3-yl)butanenitrile] | 83.7
33 | Cn1c(=O)c(C(=O)CCl)c(N)n(Cc2ccccc2)c1=O [10-L15, 6-amino-1-benzyl-5-(2-chloroacetyl)-3-methyl-1,2,3,4-tetrahydropyrimidine-2,4-dione] | 76.7
34 | O=C(CCl)c1ccc(Cl)c(Cl)c1 [10-L16, 2-chloro-1-(3,4-dichlorophenyl)ethan-1-one] | 31.3
35 | O=C(CCl)c1cnc(N2CCCCC2)s1 [10-L17, 2-chloro-1-[2-(piperidin-1-yl)-1,3-thiazol-5-yl]ethan-1-one] | 101
36 | Cc1cc(C(=O)CCl)c(C)n1-c1ccc(Cl)c(C(F)(F)F)c1 [10-L18, 2-chloro-1-{1-[4-chloro-3-(trifluoromethyl)phenyl]-2,5-dimethyl-1H-pyrrol-3-yl}ethan-1-one] | 0.747
37 | Cc1cc(F)c(C(=O)CCl)cc1F [10-L19, 2-chloro-1-(2,5-difluoro-4-methylphenyl)ethan-1-one] | 87
38 | Cc1cc(C(=O)CCl)c(C)n1-c1ccccc1 [10-L20, 2-chloro-1-(2,5-dimethyl-1-phenyl-1H-pyrrol-3-yl)ethan-1-one] | 1.11
39 | O=C(Cc1cccc(F)c1)N1CCSSCC1 [10-L21, 1-(1,2,5-dithiazepan-5-yl)-2-(3-fluorophenyl)ethan-1-one] | 108
40 | CC(=O)N1CCc2cc(C(=O)C(C)Cl)ccc21 (centres unmarked) [10-L22, 1-(1-acetyl-2,3-dihydro-1H-indol-5-yl)-2-chloropropan-1-one] | 82.9

Row | Structure (SMILES) | viability at 48 h, 25 µM [%]
41 | O=C1CCc2cc(C(=O)CCl)ccc2N1 [10-M03, 6-(2-chloroacetyl)-1,2,3,4-tetrahydroquinolin-2-one] | 1.31
42 | CC(=O)NCc1ccc(C(=O)C(C)Cl)s1 (centres unmarked) [10-M04, N-{[5-(2-chloropropanoyl)thiophen-2-yl]methyl}acetamide] | 93.5
43 | Cc1oc(C(N)=O)cc1C(=O)CCl [10-M05, 4-(2-chloroacetyl)-5-methylfuran-2-carboxamide] | 27.7
44 | CC(Cl)C(=O)c1ccc(NC(=O)C(C)(C)C)cc1 (centres unmarked) [10-M06, N-[4-(2-chloropropanoyl)phenyl]-2,2-dimethylpropanamide] | 97.9
45 | NC(=O)COc1ccc(C(=O)CCl)cc1 [10-M07, 2-[4-(2-chloroacetyl)phenoxy]acetamide] | 38.6
46 | CC(Cl)C(=O)c1ccc2c(c1)CCC2 (centres unmarked) [10-M08, 2-chloro-1-(2,3-dihydro-1H-inden-5-yl)propan-1-one] | 95.2
47 | O=C(CCl)c1ccncc1 [10-M09, 2-chloro-1-(pyridin-4-yl)ethan-1-one hydrochloride] | 79.1
48 | O=C1C=CC(=O)N1c1ccc(F)cc1 [10-M10, 1-(4-fluorophenyl)-2,5-dihydro-1H-pyrrole-2,5-dione] | 68.4
49 | Cc1coc(C)c1C(=O)CCl [10-M11, 2-chloro-1-(2,4-dimethylfuran-3-yl)ethan-1-one] | 72.9
50 | CC(C)Cn1c(N)c(C(=O)CCl)c(=O)n(C)c1=O [10-M12, 6-amino-5-(2-chloroacetyl)-3-methyl-1-(2-methylpropyl)-1,2,3,4-tetrahydropyrimidine-2,4-dione] | 97.1
51 | CC1CC(C(=O)CCl)CO1 (centres unmarked) [10-M13, 2-chloro-1-(5-methyloxolan-3-yl)ethan-1-one] | 102
52 | Cc1cc(C(=O)CCl)c(C)n1Cc1ccccc1 [10-M14, 1-(1-benzyl-2,5-dimethyl-1H-pyrrol-3-yl)-2-chloroethan-1-one] | 78.4
53 | O=C(CCl)C1CC12CCOCC2 (centres unmarked) [10-M15, 2-chloro-1-{6-oxaspiro[2.5]octan-1-yl}ethan-1-one] | 108
54 | O=C(c1ccccc1)c1cc(Cl)ccc1N1C(=O)C=CC1=O [10-M16, 1-(2-benzoyl-4-chlorophenyl)-2,5-dihydro-1H-pyrrole-2,5-dione] | 48.7
55 | O=C(CCl)COc1ccc(Cl)cc1 [10-M17, 1-chloro-3-(4-chlorophenoxy)propan-2-one] | 26.1
56 | Cc1nc(C)c(S(=O)(=O)N2CCSSCC2)s1 [10-M18, 5-[(2,4-dimethyl-1,3-thiazol-5-yl)sulfonyl]-1,2,5-dithiazepane] | 90.2
57 | Cn1cc(C(=O)CCl)nn1 [10-M19, 2-chloro-1-(1-methyl-1H-1,2,3-triazol-4-yl)ethan-1-one] | 68.1
58 | O=C1CCCc2cc(C(=O)CCl)ccc2N1 [10-M20, 7-(2-chloroacetyl)-2,3,4,5-tetrahydro-1H-1-benzazepin-2-one] | 80.5
59 | Cc1oc(C(=O)O)cc1C(=O)CCl [10-M21, 4-(2-chloroacetyl)-5-methylfuran-2-carboxylic acid] | 91
